Calls of active or inactive are those of the source. The calls are words filed in the database; no cut-off is given here.
Tests used:
[1] = target: T1, beta-catenin-B-cell lymphoma 9 protein complex (Homo sapiens, UniProt P35222); assay: Inhibition of beta-catenin (unknown origin) to BCL9-FAM (unknown origin) protein-protein interaction preincubated for 2 hrs followed by BCL9 addition and measured after 2 hrs by fluorescence polarization assay; assay type: protein-complex assay
T1 sequence (P35222 whole entry): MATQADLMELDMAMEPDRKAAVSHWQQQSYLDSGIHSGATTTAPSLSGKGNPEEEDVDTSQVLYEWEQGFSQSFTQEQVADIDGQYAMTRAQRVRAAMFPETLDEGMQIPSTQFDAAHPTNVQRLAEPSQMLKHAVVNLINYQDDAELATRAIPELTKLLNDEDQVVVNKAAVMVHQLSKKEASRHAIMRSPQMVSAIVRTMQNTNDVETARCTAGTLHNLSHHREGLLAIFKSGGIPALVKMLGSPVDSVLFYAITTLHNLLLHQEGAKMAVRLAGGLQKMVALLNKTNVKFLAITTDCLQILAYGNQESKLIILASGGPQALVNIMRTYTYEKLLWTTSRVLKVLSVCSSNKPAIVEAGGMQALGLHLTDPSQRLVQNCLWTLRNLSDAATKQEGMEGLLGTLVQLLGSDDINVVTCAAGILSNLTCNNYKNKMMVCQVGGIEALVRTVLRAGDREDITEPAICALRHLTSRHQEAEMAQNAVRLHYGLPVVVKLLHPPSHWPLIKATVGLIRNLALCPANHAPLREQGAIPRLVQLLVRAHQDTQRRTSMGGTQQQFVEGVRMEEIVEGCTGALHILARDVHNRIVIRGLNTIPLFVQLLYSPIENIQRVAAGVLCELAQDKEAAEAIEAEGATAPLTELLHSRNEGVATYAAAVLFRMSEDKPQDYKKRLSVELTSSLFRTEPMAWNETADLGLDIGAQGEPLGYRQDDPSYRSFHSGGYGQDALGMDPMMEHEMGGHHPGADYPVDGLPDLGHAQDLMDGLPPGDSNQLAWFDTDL
T1 sequence (O00512 whole entry): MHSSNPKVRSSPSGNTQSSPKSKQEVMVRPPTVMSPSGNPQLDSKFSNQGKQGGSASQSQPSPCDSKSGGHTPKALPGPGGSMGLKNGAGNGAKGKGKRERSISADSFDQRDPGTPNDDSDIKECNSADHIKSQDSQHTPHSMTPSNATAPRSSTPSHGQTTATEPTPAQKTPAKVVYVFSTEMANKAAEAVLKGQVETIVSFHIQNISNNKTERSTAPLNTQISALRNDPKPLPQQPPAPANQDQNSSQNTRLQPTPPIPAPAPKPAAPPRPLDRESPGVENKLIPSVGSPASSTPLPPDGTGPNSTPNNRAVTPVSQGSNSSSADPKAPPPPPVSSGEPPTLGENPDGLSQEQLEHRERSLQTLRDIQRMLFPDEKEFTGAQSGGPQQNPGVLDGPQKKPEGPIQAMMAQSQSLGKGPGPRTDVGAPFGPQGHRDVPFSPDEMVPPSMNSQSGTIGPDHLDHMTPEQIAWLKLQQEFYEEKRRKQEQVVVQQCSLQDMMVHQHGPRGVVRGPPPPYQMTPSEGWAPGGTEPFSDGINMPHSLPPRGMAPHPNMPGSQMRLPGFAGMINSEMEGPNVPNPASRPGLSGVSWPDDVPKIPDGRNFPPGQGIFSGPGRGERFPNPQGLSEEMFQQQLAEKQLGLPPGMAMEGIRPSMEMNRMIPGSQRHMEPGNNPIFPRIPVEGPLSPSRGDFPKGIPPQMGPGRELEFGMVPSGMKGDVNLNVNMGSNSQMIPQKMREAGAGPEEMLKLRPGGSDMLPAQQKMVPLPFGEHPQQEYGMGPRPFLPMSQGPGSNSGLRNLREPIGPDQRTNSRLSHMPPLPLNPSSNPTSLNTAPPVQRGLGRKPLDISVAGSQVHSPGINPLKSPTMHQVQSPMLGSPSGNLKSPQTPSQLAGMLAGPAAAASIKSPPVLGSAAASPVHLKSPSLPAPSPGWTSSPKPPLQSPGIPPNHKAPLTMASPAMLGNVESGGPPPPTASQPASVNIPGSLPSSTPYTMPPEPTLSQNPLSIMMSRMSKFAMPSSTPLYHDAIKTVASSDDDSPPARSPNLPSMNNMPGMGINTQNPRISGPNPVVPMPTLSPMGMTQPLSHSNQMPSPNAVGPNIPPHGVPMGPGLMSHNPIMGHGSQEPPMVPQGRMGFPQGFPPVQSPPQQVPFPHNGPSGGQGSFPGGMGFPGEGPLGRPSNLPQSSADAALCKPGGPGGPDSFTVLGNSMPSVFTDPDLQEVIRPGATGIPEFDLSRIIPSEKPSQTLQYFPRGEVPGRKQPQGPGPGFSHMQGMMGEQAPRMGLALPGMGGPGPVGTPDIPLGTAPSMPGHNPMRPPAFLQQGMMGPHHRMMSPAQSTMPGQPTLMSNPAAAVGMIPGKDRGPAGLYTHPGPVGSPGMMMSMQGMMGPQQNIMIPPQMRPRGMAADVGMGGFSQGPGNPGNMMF

CT26 [2] = assay: Antiproliferative activity against mouse CT26 cells assessed as reduction in cell viability incubated for 48 hrs by CCK-8 assay; conditions: CT26, 48 h
[3] = Inhibition of Wnt/beta-catenin signaling in mouse CT26 cells assessed as reduction in Axin2 expression incubated for 24 hrs by qPCR analysis; conditions: CT26, 24 h
[4] = Inhibition of Wnt/beta-catenin signaling in human HCT-116 cells assessed as reduction in Axin2 expression incubated for 24 hrs by qPCR analysis; conditions: HCT-116, 24 h
[5] = Inhibition of Wnt/beta-catenin signaling in human HCT116 cells incubated for 24 hrs by TCF/LEF reporter assay; conditions: HCT-116, 24 h
CT26 [6] = assay: Antitumor activity against mouse CT26 cells implanted in BALB/c mouse assessed as tumor growth inhibition at 30 mg/kg, ip administered once daily and measured on day 14; assay type: functional; conditions: CT26, 336 h, time 14 day, read-out: TGI
CT26 [7] = assay: Inhibition of Wnt/beta-catenin signaling in mouse CT26 cells assessed as reduction in Axin2 expression incubated for 24 hrs by Western blot analysis; assay type: cell-based; conditions: dose 5-20 µM
[8] = Toxicity in BALB/c mouse assessed as body weight loss at 30 mg/kg, ip administered once daily measured after 14 days; assay type: organism-based; conditions: in vivo, 336 h, time 14 day
HCT-116 = assay: Antiproliferative activity against human HCT-116 cells assessed as reduction in cell viability incubated for 48 hrs by CCK8 assay; conditions: HCT-116, 48 h
[9] = Inhibition of Wnt/beta-catenin signaling in BCL9 knockdown mouse CT26 cells assessed as reduction in Axin2 expression incubated for 24 hrs by qPCR analysis; conditions: CT26, 24 h
CT26 [10] = assay: Induction of apoptosis in mouse CT26 cells assessed as early apoptosis at 5 to 40 uM incubated for 24 hrs by annexin V and PI staining based flow cytometry analysis; assay type: functional, cell-based; conditions: dose 5-40 µM
CT26 [11] = conditions: Mus musculus, dose 30.0 mg/kg, route ip, time 14.0 day
Description: In vivo inhibition of Wnt/beta-catenin signaling in mouse CT26 cells implanted in BALB/c mouse assessed as reduction in Axin2 expression at 30 mg/kg, ip administered once daily and measured on day 14 by qPCR analysis

CT26 [12] = assay: Antitumor activity against mouse CT26 cells implanted in BALB/c mouse assessed as downregulation of interleukin-10 gene expression at 30 mg/kg, ip administered once daily and measured on day 14 by qPCR analysis; assay type: functional, organism-based; conditions: time 14.0 day
[13] = Drug concentration in human HCT-116 cells assessed as retention ratio at 2 uM incubated for 24 hrs by HPLC-MS analysis; assay type: ADME, cell-based; conditions: hct-116, 24 h
[14] = Induction of immune microenvironment in BALB/c mouse spleen assessed as increase in granzyme B at 5 to 10 uM after 24 hrs by flow cytometry analysis (reference value: 16.7 %); assay type: functional; conditions: dose 5-10 µM
CT26 [15] = assay: Antitumor activity against mouse CT26 cells implanted in BALB/c mouse assessed as induction of immune microenvironment at 30 mg/kg, ip administered once daily and measured on day 14 by qPCR analysis; assay type: functional, organism-based; conditions: time 14.0 day
RKO = assay: Antiproliferative activity against human RKO cells assessed as reduction in cell viability incubated for 48 hrs by CCK8 assay
HEK293 = assay: Antiproliferative activity against HEK293 cells assessed as reduction in cell viability incubated for 48 hrs by CCK8 assay; conditions: Homo sapiens, HEK293, 48 h
CT26 [16] = assay: Induction of apoptosis in mouse CT26 cells assessed as late apoptosis at 5 to 40 uM incubated for 24 hrs by annexin V and PI staining based flow cytometry analysis; assay type: functional, cell-based; conditions: dose 5-40 µM
[17] = Drug concentration in human HCT-116 cells at 2 uM incubated for 24 hrs by HPLC-MS analysis; assay type: ADME, cell-based; conditions: hct-116, 24 h
CT26 [18] = assay: Antitumor activity against mouse CT26 cells implanted in BALB/c mouse assessed as increase in granzyme B expression at 30 mg/kg, ip administered once daily and measured on day 14 by qPCR analysis; assay type: functional, organism-based; conditions: time 14.0 day

Compound	IC50 [1]	IC50 (CT26 [2])	IC50 [3]	further results
COc1cc(OCCCN2CCN(C)CC2)c2c(=O)c(O)c(-c3ccc(O)c(O)c3)oc2c1	9.69 µM			
O=c1c(O)c(-c2ccc(O)c(O)c2)oc2c(-c3ccccc3)c(O)cc(O)c12	18.7 µM			
O=c1c(O)c(-c2ccc(O)c(OCCN3CCCCCC3)c2)oc2cc(O)cc(O)c12	37.4 µM	7.04 µM	13.9 µM	
O=c1c(O)c(-c2ccc(O)c(O)c2)oc2cc(OCCCN3CCOCC3)cc(O)c12	12.3 µM			
O=c1c(O)c(-c2ccc(O)c(OCCCN3CCCCC3)c2)oc2cc(O)cc(O)c12	18.6 µM	7.18 µM	29.7 µM	
O=c1c(O)c(-c2ccc(O)c(O)c2)oc2c(-c3ccc(O)cc3)c(O)cc(O)c12	4.46 µM			
O=c1c(O)c(-c2ccc(O)c(O)c2)oc2cc(O)cc(O)c12 [QUERCETIN]		14.4 µM	7.7 µM	IC50 [4]: 3.57 µM; IC50 [5]: 4.71 µM; inhibition in vivo at 30 mg/kg (CT26 [6]): 69.4%; inhibition (CT26 [7]): Dose-Dependent Effect; Activity [8]: Non-Toxic; IC50 (HCT-116): 10.4 µM; IC50 [9]: 23.5 µM
CN1CCN(CCCOc2cc(-c3oc4cc(O)cc(O)c4c(=O)c3O)ccc2O)CC1		3.21 µM	2.81 µM	IC50 [4]: 9.71 µM; Activity (CT26 [10]): Active; inhibition (CT26 [11]): Active; IC50 [5]: 15.2 µM; Activity (CT26 [12]): Active; inhibition in vivo at 30 mg/kg (CT26 [6]): 81.4%; Drug uptake [13]: 31.31%; Activity [14]: 31.1%; Activity (CT26 [15]): Active; IC50 (RKO): 26.7 µM; IC50 (HEK293): 17.7 µM; inhibition (CT26 [7]): Dose-Dependent Effect; Activity (CT26 [16]): Active; Activity [8]: Non-Toxic; IC50 (HCT-116): 4.4 µM; Drug uptake [17]: 0.63 µM; Activity (CT26 [18]): Active; IC50 [9]: 27.9 µM
O=c1c(O)c(-c2ccc(O)c(OCCN3CCCC3)c2)oc2cc(O)cc(O)c12	56.8 µM	8.2 µM	17.6 µM	
O=c1c(O)c(-c2ccc(O)c(OCCCN3CCOCC3)c2)oc2cc(O)cc(O)c12		7.85 µM	6.29 µM	
O=c1c(O)c(-c2ccc(O)c(OCCCN3CCCCCC3)c2)oc2cc(O)cc(O)c12	20.1 µM	35 µM	34.7 µM	
O=C1[C@H](Cc2ccc(O)cc2)N2C(=O)CCN(C(=O)NCc3ccccc3)[C@H]2CN1Cc1cccc2ccccc12				inhibition in vivo at 30 mg/kg (CT26 [6]): 40.8%; Activity [8]: Non-Toxic
CN1CCN(CCOc2cc(-c3oc4cc(O)cc(O)c4c(=O)c3O)ccc2O)CC1	78.9 µM	11.7 µM	17.8 µM	
CCN(CC)CCCOc1cc(-c2oc3cc(O)cc(O)c3c(=O)c2O)ccc1O	11.7 µM	23.7 µM	11.2 µM	
COc1cc(OCCCN2CCOCC2)c2c(=O)c(O)c(-c3ccc(O)c(O)c3)oc2c1	6.09 µM			
O=c1c(O)c(-c2ccc(O)c(OCCN3CCCCC3)c2)oc2cc(O)cc(O)c12	31.1 µM	8.67 µM	23.1 µM	
CCN(CC)CCOc1cc(-c2oc3cc(O)cc(O)c3c(=O)c2O)ccc1O	27.9 µM	11.8 µM	40.7 µM	
O=c1c(O)c(-c2ccc(O)c(OCCCN3CCCC3)c2)oc2cc(O)cc(O)c12	25.7 µM	6.26 µM	19.2 µM	
CN1CCN(CCCOc2cc(O)c3c(=O)c(O)c(-c4ccc(O)c(O)c4)oc3c2)CC1	9.13 µM			
O=c1c(O)c(-c2ccc(O)c(OCCN3CCOCC3)c2)oc2cc(O)cc(O)c12	30.2 µM	9.96 µM	38.4 µM	
